From the Kinase Knowledgebase extract (Sharma et al. 2016)

target: PIK3CA (human) (UniProt P42336); assay: Assessment of PIK3CA Kinase Activity
Sequence (P42336 whole entry, looked up): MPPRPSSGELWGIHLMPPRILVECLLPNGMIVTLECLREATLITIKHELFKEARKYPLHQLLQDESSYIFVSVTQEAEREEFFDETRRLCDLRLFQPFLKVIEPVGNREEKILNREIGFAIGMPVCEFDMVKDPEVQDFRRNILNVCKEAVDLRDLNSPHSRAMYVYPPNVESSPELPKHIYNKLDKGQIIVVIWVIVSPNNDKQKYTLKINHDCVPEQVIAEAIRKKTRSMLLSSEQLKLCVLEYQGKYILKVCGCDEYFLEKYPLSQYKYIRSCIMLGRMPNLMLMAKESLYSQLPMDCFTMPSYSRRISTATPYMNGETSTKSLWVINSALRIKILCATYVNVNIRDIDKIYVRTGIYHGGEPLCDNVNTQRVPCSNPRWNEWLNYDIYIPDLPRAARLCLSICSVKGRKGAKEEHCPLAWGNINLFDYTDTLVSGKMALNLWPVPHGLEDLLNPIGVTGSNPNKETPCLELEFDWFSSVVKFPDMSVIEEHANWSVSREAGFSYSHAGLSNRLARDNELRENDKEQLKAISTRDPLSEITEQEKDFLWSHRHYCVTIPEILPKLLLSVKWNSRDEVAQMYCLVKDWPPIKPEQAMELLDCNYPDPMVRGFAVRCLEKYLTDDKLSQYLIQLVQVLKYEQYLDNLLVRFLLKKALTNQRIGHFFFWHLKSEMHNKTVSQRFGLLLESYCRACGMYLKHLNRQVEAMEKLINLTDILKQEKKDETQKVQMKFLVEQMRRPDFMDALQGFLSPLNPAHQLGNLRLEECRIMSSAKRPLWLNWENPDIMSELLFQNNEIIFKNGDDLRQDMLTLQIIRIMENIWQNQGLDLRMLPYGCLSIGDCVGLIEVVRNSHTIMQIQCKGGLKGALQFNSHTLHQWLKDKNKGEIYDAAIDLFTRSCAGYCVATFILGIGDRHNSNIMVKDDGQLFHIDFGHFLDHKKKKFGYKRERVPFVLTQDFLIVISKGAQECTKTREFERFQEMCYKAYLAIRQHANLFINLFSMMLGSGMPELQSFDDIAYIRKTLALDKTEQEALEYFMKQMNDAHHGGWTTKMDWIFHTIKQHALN

Row | SMILES | IC50
1 | Cc1nc2cc(-c3ccc4c(c3)CN(c3nc(CN5CCCC5)nc(C)c3C(C)C)CCO4)ccc2[nH]1 | ≤ 0.1 µM
2 | Cc1nc2cc(-c3ccc4c(c3)CN(c3nc(N)nc(C)c3C(C)C)CCO4)ccc2[nH]1 | ≤ 0.1 µM
3 | Cc1nc2cc(-c3ccc4c(c3)CN(c3nc(N)nc(C)c3Cc3ccc(F)cc3)CCO4)cnc2[nH]1 | ≤ 0.1 µM
4 | Cc1nc2cc(-c3ccc4c(c3)CN(c3nc(C(C)N)nc5c3CC(C)(C)CC5)CCO4)ccc2[nH]1 (stereo not given) | ≤ 0.1 µM
5 | Cc1nc2ncc(-c3ccc4c(c3)CN(c3nc(N)nc5c3CC(C)(C)CC5)CCO4)cc2[nH]1 | ≤ 0.1 µM
6 | COC(=O)Nc1nc2cc(-c3ccc4c(c3)CN(c3nc(N)nc(C)c3C(C)C)CCO4)ccc2[nH]1 | ≤ 0.1 µM
7 | CCN(CC)Cc1nc(C)c(C(C)C)c(N2CCOc3ccc(-c4ccc5nc(C)[nH]c5c4)cc3C2)n1 | ≤ 0.1 µM
8 | Cc1nc2ccc(-c3cc(F)c4c(c3)CN(c3nc(N)nc(C)c3C(C)C)CCO4)cc2[nH]1 | ≤ 0.1 µM
9 | COCCOc1cc(-c2ccc3c(c2)CN(c2nc(CN(C)C)nc4c2CC(C)(C)CC4)CCO3)ccc1OC | ≤ 0.1 µM
10 | Cc1nc2cc(-c3ccc4c(c3)CN(c3nc(CNCCF)nc(C)c3C(C)C)CCO4)ccc2[nH]1 | ≤ 0.1 µM
11 | Cc1nc2ccc(-c3ccc4c(c3)CN(c3nc(CO)nc(C)c3C(C)C)CCO4)cc2[nH]1 | ≤ 0.1 µM
12 | C=CCc1c(C)nc(N)nc1N1CCOc2ccc(-c3ccc4nc(C)[nH]c4c3)cc2C1 | ≤ 0.1 µM
13 | CC(=O)OCc1nc(C)c(C(C)C)c(N2CCOc3ccc(-c4ccc5nc(C)[nH]c5c4)cc3C2)n1 | ≤ 0.1 µM
14 | COc1ccc(-c2ccc3c(c2)CN(c2nc(N)nc(C)c2C(C)C)CCO3)cc1NS(C)(=O)=O | 0.1 to 0.5 µM
15 | Cc1nc2cc(-c3ccc4c(c3)CN(c3nc(NC5CNC5)nc(C)c3C(C)C)CCO4)ccc2[nH]1 | ≤ 0.1 µM
16 | CC1(C)CCc2nc(N)nc(N3CCOc4ccc(-c5cnc6[nH]cnc6c5)cc4C3)c2C1 | ≤ 0.1 µM
17 | Cc1nc(N)nc(N2CCOc3ccc(-c4cnc5[nH]cnc5c4)cc3C2)c1C(C)C | ≤ 0.1 µM
18 | Cc1nc2cc(-c3ccc4c(c3)CN(c3nc(N)nc5c3CC(C)(C)CC5)CCO4)ccc2[nH]1 | ≤ 0.1 µM
19 | Cc1nc(N)nc(N2CCOc3ccc(-c4cnc5[nH]c(N)nc5c4)cc3C2)c1C(C)C | ≤ 0.1 µM
20 | CCNc1nc2cc(-c3ccc4c(c3)CN(c3nc(N)nc(C)c3C(C)C)CCO4)ccc2[nH]1 | ≤ 0.1 µM
21 | Cc1nc2cc(-c3ccc4c(c3)CN(c3nc(NC5CNC5)nc(C)c3Cc3ccc(F)cc3)CCO4)ccc2[nH]1 | ≤ 0.1 µM
22 | Cc1nc2cc(-c3ccc4c(c3)CN(c3cc(N)ncc3C#N)CCO4)ccc2[nH]1 | ≤ 0.1 µM
23 | CC(=O)NCc1nc2c(c(N3CCOc4ccc(-c5ccc6[nH]c(C)nc6c5)cc4C3)n1)CC(C)(C)CC2 | ≤ 0.1 µM
24 | Cc1nc2cc(-c3ccc4c(c3)CN(c3nc(N)nc(C)c3C(C)C)CCO4)cnc2[nH]1 | ≤ 0.1 µM

Results, then the molecule that gave them:

Row | IC50 | SMILES
25 | ≤ 0.1 µM | Cc1nc(N)nc(N2CCOc3ccc(-c4ccc5[nH]cnc5c4)cc3C2)c1C(C)C
26 | 0.1 to 0.5 µM | Cc1nc2cc(-c3ccc4c(c3)CN(c3nc(NCCCN(C)C)nc(C)c3Cc3ccc(F)cc3)CCO4)ccc2[nH]1
27 | 0.1 to 0.5 µM | Cc1nc2cc(-c3ccc4c(c3)CN(c3nc(CN(C)C)nc(C)c3-c3ccccc3)CCO4)ccc2[nH]1
28 | ≤ 0.1 µM | Cc1nc2ccc(-c3ccc4c(c3)CN(c3nc(CN(C)C)nc(C)c3C)CCO4)cc2[nH]1
29 | ≤ 0.1 µM | Cc1nc2cc(-c3ccc4c(c3)CN(c3nc(NCCN(C)C)nc(C)c3Cc3ccc(F)cc3)CCO4)ccc2[nH]1
30 | ≤ 0.1 µM | COc1ccc(-c2ccc3c(c2)CN(c2nc(CN(C)C)nc4c2CC(C)(C)CC4)CCO3)cc1S(C)(=O)=O
31 | ≤ 0.1 µM | COc1ccc2c(N3CCOc4ccc(-c5cnc6[nH]cnc6c5)cc4C3)nc(CN(C)C)nc2c1
32 | ≤ 0.1 µM | COC(=O)Cc1c(C)nc(CN(C)C)nc1N1CCOc2ccc(-c3ccc4nc(C)[nH]c4c3)cc2C1
33 | ≤ 0.1 µM | CCCc1c(C)nc(CN(C)C)nc1N1CCOc2ccc(-c3ccc4nc(C)[nH]c4c3)cc2C1
34 | 0.1 to 0.5 µM | Cc1nc2cc(-c3ccc4c(c3)CN(c3nc(CN(C)C)nc(C)c3CC(C)C)CCO4)ccc2[nH]1
35 | ≤ 0.1 µM | Cc1nc(N)nc(N2CCOc3ccc(-c4cnc5[nH]cnc5c4)cc3C2)c1Cc1ccc(F)cc1
36 | ≤ 0.1 µM | CC1(C)CCc2nc(N)nc(N3CCOc4ccc(-c5ccc6[nH]cnc6c5)cc4C3)c2C1
37 | ≤ 0.1 µM | Cc1nc2cc(-c3ccc4c(c3)CN(c3nc(CN(C)C)nc(C)c3Br)CCO4)ccc2[nH]1
38 | ≤ 0.1 µM | COc1ccc(-c2ccc3c(c2)CN(c2nc(CN(C)C)nc4c2CC(C)(C)CC4)CCO3)cc1OC(F)F
39 | ≤ 0.1 µM | Cc1nc2cc(-c3ccc4c(c3)CN(c3nc(CF)nc5c3CC(C)(C)CC5)CCO4)ccc2[nH]1
40 | ≤ 0.1 µM | COc1ccc2c(N3CCOc4ccc(-c5ccc6[nH]c(C)nc6c5)cc4C3)nc(CN(C)C)nc2c1
41 | ≤ 0.1 µM | Cc1nc2cc(-c3ccc4c(c3)CN(c3nc(N)nc(C)c3Cc3ccc(F)cc3)CCO4)ccc2[nH]1
42 | 0.1 to 0.5 µM | CCNc1nc(C)c(Cc2ccc(F)cc2)c(N2CCOc3ccc(-c4ccc5[nH]c(C)nc5c4)cc3C2)n1
43 | 0.1 to 0.5 µM | Cc1nc2cc(-c3ccc4c(c3)CN(c3nc(CN(C)C)nc(C)c3Cl)CCO4)ccc2[nH]1
44 | 0.1 to 0.5 µM | COc1ccc(-c2ccc3c(c2)CN(c2nc(CN(C)C)nc4c2CC(C)(C)CC4)CCO3)cc1C(C)=O
45 | ≤ 0.1 µM | Cc1nc2cc(-c3ccc4c(c3)CN(c3nc(CN(C)C)nc(C)c3CCCF)CCO4)ccc2[nH]1
46 | ≤ 0.1 µM | COCCc1c(C)nc(CN(C)C)nc1N1CCOc2ccc(-c3ccc4nc(C)[nH]c4c3)cc2C1
47 | ≤ 0.1 µM | COc1ccc2c(N3CCOc4ccc(-c5ccc6[nH]cnc6c5)cc4C3)nc(CN(C)C)nc2c1
48 | ≤ 0.1 µM | Cc1nc(N)nc(N2CCOc3ccc(-c4ccc5[nH]cnc5c4)cc3C2)c1Cc1ccc(F)cc1
49 | ≤ 0.1 µM | C=CCc1c(C)nc(CN(C)C)nc1N1CCOc2ccc(-c3ccc4nc(C)[nH]c4c3)cc2C1
50 | ≤ 0.1 µM | COc1ccc(-c2ccc3c(c2)CN(c2nc(CN(C)C)nc(C)c2C(C)C)CCO3)cc1NS(C)(=O)=O
